The results in this text go back to ChEMBL document CHEMBL4507263, “Data for DCP probe BAY-474” (2021).

Series [1] deals with Histamine H1 receptor (Homo sapiens) (UniProt P35367). The settings on record: Compound concentration 10.0 uM.
The target of series [2] is Mitogen-activated protein kinase 8 (Homo sapiens) (UniProt P45983). Description: JNK1alpha1 (h) Millipore kinase activity assay. The settings on record: Compound concentration 1.0 uM.
In series [3] the target is Serine/threonine-protein kinase 10 (Homo sapiens) (UniProt O94804). Description: LOK (h) Millipore kinase activity assay. The following applies: Compound concentration 1.0 uM.
Sequence of Serine/threonine-protein kinase 10 (Homo sapiens) (O94804 whole entry, looked up): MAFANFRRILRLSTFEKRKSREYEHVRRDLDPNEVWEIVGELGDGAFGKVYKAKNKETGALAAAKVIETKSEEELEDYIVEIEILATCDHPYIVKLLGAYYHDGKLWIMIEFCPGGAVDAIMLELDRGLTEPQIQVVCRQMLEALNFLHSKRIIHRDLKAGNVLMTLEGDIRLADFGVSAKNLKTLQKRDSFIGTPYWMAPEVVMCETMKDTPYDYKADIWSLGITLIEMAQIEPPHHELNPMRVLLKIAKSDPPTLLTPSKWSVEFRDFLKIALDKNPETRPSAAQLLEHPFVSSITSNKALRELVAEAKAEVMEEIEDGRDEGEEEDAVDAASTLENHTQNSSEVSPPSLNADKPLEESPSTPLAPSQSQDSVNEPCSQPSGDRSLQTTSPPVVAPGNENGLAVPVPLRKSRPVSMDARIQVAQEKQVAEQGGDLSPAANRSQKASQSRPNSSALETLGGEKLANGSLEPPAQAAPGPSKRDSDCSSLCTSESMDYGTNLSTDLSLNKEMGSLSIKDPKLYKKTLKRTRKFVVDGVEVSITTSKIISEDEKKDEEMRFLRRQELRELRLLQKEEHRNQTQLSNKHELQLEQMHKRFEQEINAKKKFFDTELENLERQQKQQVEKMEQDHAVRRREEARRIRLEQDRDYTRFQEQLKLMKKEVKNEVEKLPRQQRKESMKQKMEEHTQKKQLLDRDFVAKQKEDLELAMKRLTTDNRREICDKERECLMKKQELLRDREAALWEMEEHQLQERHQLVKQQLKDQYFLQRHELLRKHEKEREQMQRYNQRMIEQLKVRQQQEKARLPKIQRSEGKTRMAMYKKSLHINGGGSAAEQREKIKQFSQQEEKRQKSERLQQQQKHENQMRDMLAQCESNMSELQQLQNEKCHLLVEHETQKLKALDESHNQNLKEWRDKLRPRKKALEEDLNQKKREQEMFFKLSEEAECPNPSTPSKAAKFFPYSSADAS
For a further series, the species on record is Rattus norvegicus. The settings on record: Compound concentration 10.0 uM.
Series [4] addresses Macrophage-stimulating protein receptor (Homo sapiens) (UniProt Q04912). Description: Ron (h) Millipore kinase activity assay. The settings on record: Compound concentration 1.0 uM.
Series [5] addresses D(3) dopamine receptor (Homo sapiens) (UniProt P35462). The following applies: Compound concentration 10.0 uM.
For series [6], the target named is Rho-associated protein kinase 2 (Homo sapiens) (UniProt O75116). Kind of series: ROCK-II (h) Millipore kinase activity assay. The following applies: Compound concentration 1.0 uM.
Series [7] has as its target Serine/threonine-protein kinase NLK (Homo sapiens) (UniProt Q9UBE8). Kind of series: NLK (h) Millipore kinase activity assay. The following applies: Compound concentration 1.0 uM.
For series [8], the target named is Glutamate NMDA receptor (Rattus norvegicus) (UniProt P35439+Q00959+Q00960+Q00961+Q62645+Q8VHN2+Q9R1M7). The following applies: Compound concentration 10.0 uM.
The target of series [9] is Protein-tyrosine kinase 2-beta (Homo sapiens) (UniProt Q14289). Kind of series: Pyk2 (h) Millipore kinase activity assay. The settings on record: Compound concentration 1.0 uM.
Series [10] concerns the target Ephrin type-A receptor 7 (Homo sapiens) (UniProt Q15375). Kind of series: EphA7 (h) Millipore kinase activity assay. The settings on record: Compound concentration 1.0 uM.
The target of a further series is hERG (KCNH2) (Homo sapiens, UniProt Q12809). Kind of series: Inhibition of Potassium Channel hERG at 10 µM in the Eurofins-Panlabs radioligand binding assay (Eurofins_assay_265900). Details: ligand concentration 1.5 nM, non-specific ligand with concentration Astemizole, incubation time 60 min, incubation temperature 25 °C. The following applies: HEK-293 cells expressing human recombinant hERG, probe [3H] Astemizole, compound concentration 10 uM. In general terms: Block of hERG is tested as a sign of cardiac risk.

The target of series [11] is Muscle, skeletal receptor tyrosine-protein kinase (Homo sapiens) (UniProt O15146). The following applies: Compound concentration 1000.0 nM.
Series [12] concerns the target Interleukin-1 receptor-associated kinase 1 (Homo sapiens) (UniProt P51617). The settings on record: Compound concentration 1000.0 nM.
Series [13] has as its target Phosphatidylinositol 4,5-bisphosphate 3-kinase catalytic subunit beta isoform (Homo sapiens) (UniProt P42338). The following applies: Compound concentration 1000.0 nM.
Series [14] addresses Cyclin-dependent kinase 2 homolog (Plasmodium falciparum (isolate 3D7)) (UniProt P61075). The settings on record: Compound concentration 1000.0 nM.
In series [15] the target is Casein kinase I isoform delta (Homo sapiens) (UniProt P48730). The settings on record: Compound concentration 1000.0 nM.
Sequence of Casein kinase I isoform delta (Homo sapiens) (P48730 whole entry, looked up, canonical isoform): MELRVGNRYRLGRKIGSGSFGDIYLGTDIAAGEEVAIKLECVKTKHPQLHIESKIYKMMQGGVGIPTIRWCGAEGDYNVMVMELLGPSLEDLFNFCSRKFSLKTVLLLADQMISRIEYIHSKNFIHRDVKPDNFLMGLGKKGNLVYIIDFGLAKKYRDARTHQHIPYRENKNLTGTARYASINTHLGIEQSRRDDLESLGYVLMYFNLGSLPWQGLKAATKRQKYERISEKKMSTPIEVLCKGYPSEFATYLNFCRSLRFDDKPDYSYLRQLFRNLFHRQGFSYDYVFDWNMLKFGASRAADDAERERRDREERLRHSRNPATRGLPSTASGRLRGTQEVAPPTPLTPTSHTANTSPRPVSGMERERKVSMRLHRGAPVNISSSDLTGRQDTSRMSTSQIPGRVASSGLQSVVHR
The target of series [16] is Tyrosine-protein kinase receptor TYRO3 (Homo sapiens) (UniProt Q06418). The following applies: Compound concentration 1000.0 nM.
The test system of series [17] is Proto-oncogene tyrosine-protein kinase receptor Ret (Homo sapiens), P07949 [V804L]. The following applies: Compound concentration 1000.0 nM.
Sequence of Proto-oncogene tyrosine-protein kinase receptor Ret (Homo sapiens), P07949 [V804L] (P07949 whole entry V804L): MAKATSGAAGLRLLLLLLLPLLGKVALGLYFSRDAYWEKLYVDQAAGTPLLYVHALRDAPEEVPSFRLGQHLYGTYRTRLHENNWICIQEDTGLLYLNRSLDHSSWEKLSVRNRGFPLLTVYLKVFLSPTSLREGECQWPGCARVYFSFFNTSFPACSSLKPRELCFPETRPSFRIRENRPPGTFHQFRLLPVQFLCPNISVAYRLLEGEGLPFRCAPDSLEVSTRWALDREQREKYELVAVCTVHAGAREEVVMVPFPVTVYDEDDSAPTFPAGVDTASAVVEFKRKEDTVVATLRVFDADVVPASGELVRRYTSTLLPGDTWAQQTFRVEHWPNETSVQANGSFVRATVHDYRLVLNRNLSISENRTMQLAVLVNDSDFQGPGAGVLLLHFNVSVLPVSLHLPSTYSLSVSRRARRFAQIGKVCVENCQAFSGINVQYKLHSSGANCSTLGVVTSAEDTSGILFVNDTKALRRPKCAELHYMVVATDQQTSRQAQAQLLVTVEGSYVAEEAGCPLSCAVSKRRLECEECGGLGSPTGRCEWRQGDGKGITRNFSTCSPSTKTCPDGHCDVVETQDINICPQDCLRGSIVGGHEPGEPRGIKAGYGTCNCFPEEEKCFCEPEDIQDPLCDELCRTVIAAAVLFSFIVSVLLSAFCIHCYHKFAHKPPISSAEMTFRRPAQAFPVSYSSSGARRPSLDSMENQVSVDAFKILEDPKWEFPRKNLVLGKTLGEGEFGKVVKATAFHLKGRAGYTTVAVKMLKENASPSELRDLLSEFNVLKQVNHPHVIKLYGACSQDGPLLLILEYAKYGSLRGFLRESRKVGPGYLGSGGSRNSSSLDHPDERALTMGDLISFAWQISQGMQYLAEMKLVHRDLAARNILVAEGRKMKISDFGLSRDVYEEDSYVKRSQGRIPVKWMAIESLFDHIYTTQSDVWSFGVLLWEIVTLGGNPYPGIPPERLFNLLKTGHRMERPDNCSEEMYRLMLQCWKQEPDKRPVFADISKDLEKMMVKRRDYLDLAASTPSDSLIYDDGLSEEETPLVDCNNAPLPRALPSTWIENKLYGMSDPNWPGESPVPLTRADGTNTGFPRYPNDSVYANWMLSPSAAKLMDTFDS
Series [18] concerns the target Tyrosine-protein kinase TXK (Homo sapiens) (UniProt P42681). The following applies: Compound concentration 1000.0 nM.
Series [19] concerns the target Cyclin-dependent kinase 18 (Homo sapiens) (UniProt Q07002). The following applies: Compound concentration 1000.0 nM.
The target in series [20] is Cyclin-dependent kinase 9 (Homo sapiens) (UniProt P50750). The settings on record: Compound concentration 1000.0 nM.
Sequence of Cyclin-dependent kinase 9 (Homo sapiens) (P50750 whole entry): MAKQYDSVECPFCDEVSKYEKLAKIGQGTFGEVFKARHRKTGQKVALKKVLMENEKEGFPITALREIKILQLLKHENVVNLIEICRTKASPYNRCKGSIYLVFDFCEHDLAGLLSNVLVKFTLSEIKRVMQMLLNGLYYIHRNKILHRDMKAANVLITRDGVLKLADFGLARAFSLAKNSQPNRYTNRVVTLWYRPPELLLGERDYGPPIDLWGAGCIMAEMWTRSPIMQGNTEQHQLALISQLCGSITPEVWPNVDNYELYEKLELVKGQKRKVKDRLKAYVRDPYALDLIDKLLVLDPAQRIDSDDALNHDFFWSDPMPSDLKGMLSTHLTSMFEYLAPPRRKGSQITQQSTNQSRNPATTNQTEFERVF
Series [21] addresses TRAF2 and NCK-interacting protein kinase (Homo sapiens) (UniProt Q9UKE5). The following applies: Compound concentration 1000.0 nM.
In series [22] the target is Bone morphogenetic protein receptor type-1A (Homo sapiens) (UniProt P36894). The following applies: Compound concentration 1000.0 nM.
Sequence of Bone morphogenetic protein receptor type-1A (Homo sapiens) (P36894 whole entry): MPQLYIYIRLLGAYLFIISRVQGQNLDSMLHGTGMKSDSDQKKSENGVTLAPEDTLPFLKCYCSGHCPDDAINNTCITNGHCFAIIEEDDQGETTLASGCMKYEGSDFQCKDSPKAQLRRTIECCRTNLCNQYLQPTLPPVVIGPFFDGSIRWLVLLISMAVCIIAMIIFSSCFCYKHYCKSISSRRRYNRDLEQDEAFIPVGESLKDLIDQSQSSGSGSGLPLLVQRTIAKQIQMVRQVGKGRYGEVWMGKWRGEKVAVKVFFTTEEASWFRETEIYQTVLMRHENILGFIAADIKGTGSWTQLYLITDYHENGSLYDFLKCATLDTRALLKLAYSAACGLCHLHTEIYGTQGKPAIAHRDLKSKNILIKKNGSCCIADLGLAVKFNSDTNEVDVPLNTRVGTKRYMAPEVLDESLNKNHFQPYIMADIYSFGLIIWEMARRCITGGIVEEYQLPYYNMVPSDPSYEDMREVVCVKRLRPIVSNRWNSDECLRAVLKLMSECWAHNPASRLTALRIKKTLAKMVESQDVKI
Series [23] concerns the target Ephrin type-B receptor 3 (Homo sapiens) (UniProt P54753). The following applies: Compound concentration 1000.0 nM.
The target of series [24] is Ribosomal protein S6 kinase alpha-1 (Homo sapiens) (UniProt Q15418). The settings on record: Compound concentration 1000.0 nM.
In series [25] the target is Mitogen-activated protein kinase kinase kinase kinase 5 (Homo sapiens) (UniProt Q9Y4K4). The following applies: Compound concentration 1000.0 nM.
Series [26] deals with Serine/threonine-protein kinase TAO1 (Homo sapiens) (UniProt Q7L7X3). The following applies: Compound concentration 1000.0 nM.
Sequence of Serine/threonine-protein kinase TAO1 (Homo sapiens) (Q7L7X3 whole entry): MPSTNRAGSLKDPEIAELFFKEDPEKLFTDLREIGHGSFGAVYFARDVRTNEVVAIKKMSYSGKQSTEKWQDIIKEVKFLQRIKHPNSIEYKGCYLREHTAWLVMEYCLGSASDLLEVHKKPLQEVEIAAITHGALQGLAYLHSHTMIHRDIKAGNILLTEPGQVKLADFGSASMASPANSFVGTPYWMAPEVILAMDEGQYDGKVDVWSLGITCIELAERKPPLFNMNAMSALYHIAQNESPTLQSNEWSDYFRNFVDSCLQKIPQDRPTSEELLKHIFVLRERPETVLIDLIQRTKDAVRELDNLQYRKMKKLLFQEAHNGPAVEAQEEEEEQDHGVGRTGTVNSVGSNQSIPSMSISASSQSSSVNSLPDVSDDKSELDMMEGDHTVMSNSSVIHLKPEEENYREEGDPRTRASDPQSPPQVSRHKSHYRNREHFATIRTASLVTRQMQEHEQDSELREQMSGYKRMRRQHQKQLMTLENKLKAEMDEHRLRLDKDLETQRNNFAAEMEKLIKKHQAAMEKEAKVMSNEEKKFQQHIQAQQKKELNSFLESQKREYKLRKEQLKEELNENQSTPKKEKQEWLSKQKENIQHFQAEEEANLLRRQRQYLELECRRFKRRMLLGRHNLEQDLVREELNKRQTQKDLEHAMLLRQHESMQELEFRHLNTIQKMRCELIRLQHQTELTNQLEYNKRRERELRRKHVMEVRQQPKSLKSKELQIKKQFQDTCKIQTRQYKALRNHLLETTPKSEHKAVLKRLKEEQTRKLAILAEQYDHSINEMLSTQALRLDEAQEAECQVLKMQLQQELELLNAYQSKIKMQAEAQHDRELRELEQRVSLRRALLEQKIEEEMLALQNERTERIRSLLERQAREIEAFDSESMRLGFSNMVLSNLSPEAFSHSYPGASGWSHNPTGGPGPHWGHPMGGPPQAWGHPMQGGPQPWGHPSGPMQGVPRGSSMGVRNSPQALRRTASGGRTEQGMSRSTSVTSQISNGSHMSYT
In series [27] the target is Serine/threonine-protein kinase 4 (Homo sapiens) (UniProt Q13043). The following applies: Compound concentration 1000.0 nM.
Series [28] has as its target SRSF protein kinase 3 (Homo sapiens) (UniProt Q9UPE1). The following applies: Compound concentration 1000.0 nM.
Series [29] deals with Mitogen-activated protein kinase kinase kinase 20 (Homo sapiens) (UniProt Q9NYL2). The following applies: Compound concentration 1000.0 nM.
The target in series [30] is T1, cGMP-dependent protein kinase 1 (Homo sapiens) (UniProt Q13976).
T1 sequence (whole entry): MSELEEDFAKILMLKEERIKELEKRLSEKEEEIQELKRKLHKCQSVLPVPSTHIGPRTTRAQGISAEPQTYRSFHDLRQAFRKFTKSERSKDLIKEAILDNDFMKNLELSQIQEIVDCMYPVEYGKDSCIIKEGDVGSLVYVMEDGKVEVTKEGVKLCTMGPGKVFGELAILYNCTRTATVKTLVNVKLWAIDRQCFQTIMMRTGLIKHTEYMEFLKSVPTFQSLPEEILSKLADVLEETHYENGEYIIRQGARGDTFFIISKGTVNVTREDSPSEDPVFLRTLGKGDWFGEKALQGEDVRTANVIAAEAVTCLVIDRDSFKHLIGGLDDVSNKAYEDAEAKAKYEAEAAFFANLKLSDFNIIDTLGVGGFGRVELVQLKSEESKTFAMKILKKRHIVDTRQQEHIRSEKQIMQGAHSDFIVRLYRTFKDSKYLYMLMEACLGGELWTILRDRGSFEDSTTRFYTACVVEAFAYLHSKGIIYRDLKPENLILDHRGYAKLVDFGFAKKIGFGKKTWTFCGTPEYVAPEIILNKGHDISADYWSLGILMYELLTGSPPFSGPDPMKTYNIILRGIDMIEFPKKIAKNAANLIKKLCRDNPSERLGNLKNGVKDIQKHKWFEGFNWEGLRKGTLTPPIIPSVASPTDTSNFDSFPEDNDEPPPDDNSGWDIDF
The settings on record: Compound concentration 1000.0 nM.

Series [31] addresses Serine/threonine-protein kinase 25 (Homo sapiens) (UniProt O00506). The settings on record: Compound concentration 1000.0 nM.
Series [32] has as its target 5'-AMP-activated protein kinase catalytic subunit alpha-1 (Homo sapiens) (UniProt Q13131). The settings on record: Compound concentration 1000.0 nM.

Sequence of Histamine H1 receptor (Homo sapiens) (P35367 whole entry): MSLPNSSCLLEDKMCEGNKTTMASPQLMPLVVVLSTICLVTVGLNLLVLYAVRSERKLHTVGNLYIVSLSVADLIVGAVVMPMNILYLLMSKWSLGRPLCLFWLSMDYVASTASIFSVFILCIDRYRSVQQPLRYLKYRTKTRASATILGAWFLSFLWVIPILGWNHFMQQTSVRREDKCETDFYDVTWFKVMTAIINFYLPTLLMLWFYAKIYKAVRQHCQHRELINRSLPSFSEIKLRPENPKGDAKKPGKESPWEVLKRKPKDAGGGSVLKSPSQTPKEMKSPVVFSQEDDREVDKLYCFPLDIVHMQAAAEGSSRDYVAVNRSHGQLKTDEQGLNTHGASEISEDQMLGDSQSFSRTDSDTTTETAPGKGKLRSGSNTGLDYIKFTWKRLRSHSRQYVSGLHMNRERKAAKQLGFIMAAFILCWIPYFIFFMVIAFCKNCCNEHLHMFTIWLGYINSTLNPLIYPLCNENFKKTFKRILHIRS

As usually defined, the inhibition is the relative decrease from the control value, in per cent. With `CC1=C(C#N)C(c2ccc3[nH]nc(C)c3c2)C(C#N)=C(C)N1` [BAY-474], the inhibition in [1] was 1%; in series [2], -8%; in [3], 26%; in the series listed under Rattus norvegicus, 1%; in series [4], 8%; in series [5], 18.1%. The inhibition is -3% in [6]; -4% in [7]; 9% in [8]; 17% in series [9]; -2% in series [10]. Also, the inhibition at 60 min, 10 µM at hERG (KCNH2) is listed as 7% (not active).
`CC1=C(C#N)[C@@H](c2ccc3[nH]nc(C)c3c2)C(C#N)=C(c2ccc(Cl)cc2)N1` [BAY-827]: the residual activity is 100% in series [11]; 100% in series [12]; 100% in series [13]; 92.5% in series [14]; 100% in [15]; 74.4% in series [16]. Moreover, the residual activity in series [17] was 96.4%; in [18] it was 88.1%; in series [19], 100%; in series [20], 96.9%; in series [21], 100%; in series [22], 98.6%. Further, the residual activity in series [23] is 100%; in [24], 91.2%; in series [25], 54%; in series [26] it was 100%; in [27] it was 100%; in series [28], 100%. Moreover, the residual activity in series [29] is 93.6%; in series [30], 86.9%; in series [31], 100%; in series [32], 100%.
